From patent US20250270206A1, “COMPOSITIONS AND METHODS FOR INHIBITION OF RAS” (TheRas, Inc., priority 2022, published 2025) come the findings set out here.

Some results are limits rather than exact numbers.

In experiment [1] the target is T1, GppNHp-loaded KRAS4b (amino acids 1-169) G12C/C118S (Homo sapiens, UniProt P01116, C118S/G12C).
T1 construct: KRAS4b (amino acids 1-169) G12C/C118S protein; made in house
Put plainly: MALDI-TOF MS covalent Cys12 modification, GppNHp-loaded KRAS G12C. Particulars: 15 minutes reaction time, 1 μM protein, 1:2.5 protein to compound ratio. The format is binding. As to the method: (§1) MALDI-TOF MS analysis was performed using 1 μM protein target, and 1:2.5 protein to compound ratio was used.
(§2) Reaction: 1 μM of GppNHp, GTP, or GDP-loaded KRAS4b (amino acids 1-169) G12C/C118S protein (produced in-house by Protein Expression Laboratory, FNLCR/Leidos Biomed) in 20 mM 4-(2-hydroxyethyl)-1-piperazineethanesulfonic acid (HEPES) buffer containing 150 mM NaCl, 1 mM MgCl2, pH 7.3 was prepared freshly before assay. Ten-μL aliquots of protein were dispensed onto low volume 384-well plate, then 375 nL DMSO, and 25 nL of tested compounds from 5 mM DMSO stocks were added to appropriate wells using ECHO 555 acoustic liquid handler (Labcyte Inc.). For each reaction/assay, three blanks were prepared by mixing 10 μL of protein solution with 400 nL DMSO. The contents of the wells were carefully mixed by aspiration, and then each plate was sealed with an adhesive cover, centrifuged at 2000 g for 1 minute, and kept in the dark at room temperature until 5 min, 15 min, 30 min, 2 h, or 6 h collections.
(§3) Target pretreatment: Before each assay MALDI target (Bruker MPT 384 ground steel BC) was pre-treated by pipetting on each spot 0.75 μL of saturated sinapinic acid in acetonitrile (ACN).
(§4) Sample preparation: At collection time point, 2 μL of reaction mixtures were pipetted out into 20 μL MALDI matrix solution (saturated solution of sinapinic acid in 1:1 ACN:water solution containing 0.75% trifluoroacetic acid (TFA)) deposited on 384 well polypropylene plate. Resulting solution was mixed by aspiration, centrifuged at 2000 g for 1 minute, then 1 μL aliquots were dispensed on pre-treated MALDI target using Beckman Coulter Biomek FX^P 96/384-Span-8 Laboratory Automation Workstation. Finally, the MALDI target was dried under mild vacuum to produce spots with fine crystalline structure.
(§5) Measurements: MALDI-TOF measurements were performed on a Bruker Daltonics rapifleX Tissuetyper TOF-TOF mass spectrometer using linear mode and mass range from 18.6 to 21.6 kDa. Detector gain was set to 3.3× (483 V), sample rate to 5 GS/s, real time smoothing to medium (175 MHz), laser smart beam pattern was set to: “MS Thin Layer M5”, and the laser frequency was 10000 Hz. Spectra were automatically collected using custom AutoXecute method. Laser power was auto adjusted using fuzzy control. The peak selection range was set to be between 19000 and 21500 Da. Peak evaluation uses half width parameter set to be smaller than 40 Da for processed spectrograms (centroid peak detection: smoothed by SavitzkyGolay algorithm using 7 m/z width and 2 cycles; baseline was subtracted using median algorithm with flatness 1 and median level 0.01). Fuzzy control used Proteins/Oligonucleotides protocol with minimum half width 1/10 times above threshold. Up to 40000 satisfactory shots were collected in 10000 shot steps. Dynamic termination was implemented to finish data collection when peak signal/noise ratio reached a value of 50.
(§6) Spectra processing: Spectra were smoothed by SavitzkyGolay algorithm using 7 m/z width and three cycles. Centroid peak detection algorithm was used with signal to noise threshold set to 6, relative intensity threshold 4%, peak width 10 m/z and median baseline subtraction using flatness of 1 and median level of 0.01. Peak intensity and area under the peak were evaluated and recorded for all peaks between 19,300 Da and 21,550 Da.
(§7) Calculation of percent modification: Percent modification was calculated as a ratio of peak height for protein modified by compound to sum of peak height of remaining protein plus peak height for protein modified by compound. If multiple modifications were observed each was calculated as a ratio of peak height for given modification versus sum of peak heights for all observed protein species. Data reported in Table 5 are from the 15 minutes reaction time point.

Experiment [2] addresses T2, GTP-loaded KRAS4b (amino acids 1-169) G12C/C118S (Homo sapiens, UniProt P01116, C118S/G12C).
T2 construct: KRAS4b (amino acids 1-169) G12C/C118S protein; made in house
Put plainly: MALDI-TOF MS covalent Cys12 modification, GTP-loaded KRAS G12C. The format is binding. Conditions: 15 minutes reaction time, 1 μM protein, 1:2.5 protein to compound ratio. The protocol: as §1, §2, §3, §4, §5, §6, §7

The target of experiment [3] is T3, GDP-loaded KRAS4b (amino acids 1-169) G12C/C118S (Homo sapiens, UniProt P01116, C118S/G12C).
T3 construct: KRAS4b (amino acids 1-169) G12C/C118S protein; made in house
Put plainly: MALDI-TOF MS covalent Cys12 modification, GDP-loaded KRAS G12C. The class given is binding. Particulars: 15 minutes reaction time, 1 μM protein, 1:2.5 protein to compound ratio. The protocol:
as §1, §2, §3, §4, §5, §6, §7

The target of experiment [4] is T4, Avi-KRAS G12C (1-169) GppNHp/RAF1 RBD-3×FLAG (52-151) (Homo sapiens, UniProt P01116, G12C).
T4 construct: Avi-KRAS G12C (1-169) GppNHp
Put plainly: KRAS G12C-effector (RAF1 RBD) protein:protein interaction HTRF disruption assay. The class given is biochemical. Particulars: PPI HTRF. As to the method: A protein:protein interaction (PPI) Homogeneous Time Resolved Fluorescence (HTRF) assay was used to determine the effectiveness of compounds of the present disclosure in disrupting KRAS G12C protein and effector (RAF1) binding.
The HTRF assay used the following reagents and proteins: 50 nM Avi-KRAS G12C (1-169) GppNHp/RAF1 RBD-3×FLAG (52-151); 75 nM Avi-RAF1 RBD-3×FLAG; Assay Buffer: 50 mM Tris pH 7.5, 100 mM NaCl, 5 mM MgCl2, 0.1% BSA, 0.01% Tween 20, 10% DMSO; Bead Buffer: 50 mM Tris pH 7.5, 0.01% Tween 20; Assay volume: 20 μL (384 well plate-low volume format); and Compound titration: 30-0.02 μM, 3× dilution series.
The HTRF assay employed the following protocol:
Compounds were dispensed in assay plate (384-well, Grenier Bione #784075) using Echo (model 555) with dose response settings: 200 nL final volume, titration from 100 μM as a 10-point dilution series. KRAS proteins were prepared in assay buffer, and dispensed on plates, 5 μL per well, then incubated for 1 h at room temperature, with 700 rpm shaking. RAF1 RBD were prepared in assay buffer, dispensed onto plates, 5 μL per well, and then incubated for 1 h at room temperature, with 700 rpm shaking. Reagent mix was then prepared and dispensed on plates, 10 μL per well, and then incubated for 1 h at room temperature, with 700 rpm shaking.
Plates were analyzed on an Envision plate reader using the following setting: Excitation 320 nm, Bandwidth 75 nm, Emission 615 nm, Bandwidth 85 nm; Gain 100%; Flashes 100; Lag 60 μs. Data was reported as percentage of activity, with DMSO as 100%. Data was plotted and analyzed using Prism 8.
On the technique in general: In TR-FRET formats the signal depends on donor and acceptor labels being close together.

In a further experiment the test system is pERK in NCI-H358 cells. Put plainly: Cell-based pERK HTRF assay. Conditions: Homo sapiens, 0.5 h, 30 min incubation. The protocol:
pERK HTRF assays (Perkin Elmer) were used to determine the effectiveness of compounds of the present disclosure in disrupting KRAS G12C protein/effector signaling in cells.
On Day 1, cells (NCI-H358) were seeded into 96-well plates at 4×10^4 cells/well in complete growth media (RPMI, 10% FBS).
On Day 2, cells were treated with compounds at 0.25% DMSO. The source plate was created with compounds diluted in media at 5-fold the final assay concentration. The compounds were run in a 9-point concentration curve starting at 75 μM, with a 3-fold dilution between concentrations. 20 μL was transferred onto the cell plates (final volume in wells was 100 μL). Plates were harvested after 30 min incubation by aspirating media and adding kit-supplied 1× supplemented lysis buffer to all wells (75 μL per well). Plates were then placed on a plate shaker and incubated at 850 rpm for an additional 30 min.
Antibody mixture solution was prepared by diluting aliquoted d2 and Eu Cryptate antibodies 1:20 in kit supplied detection buffer, then mixed the diluted antibodies solutions (1:1 v:v). 4 μL of this solution was then added to a 384-well detection plate (Perkin Elmer; 6008230).
Samples were homogenized by pipetting up and down and then transferred (16 μL of cell lysates) from the 96-well cell culture plate to two wells of the HTRF 384-well detection plate containing the antibody solution. Plates were centrifuged (524 g for 1 min) and allowed to incubate between 4 and 24 h at room temperature. Maximum signal is reached after 4 h incubation time and remains stable over a period of 24 hours. Therefore, readings can be made between 4 and 24 h of incubation. Plates were centrifuged again (524 g for 1 min) and analyzed on the EnVision plate reader using the following settings: Excitation 320 nm, Bandwidth 75 nm; Emission 615 nm, Bandwidth 85 nm; Gain 100%; Flashes 100; Lag 60 μs.

A word on the IC50: it is the concentration that gives 50% inhibition. Turning to `C=CC(=O)N1CCC(N(C)c2nc(OC[C@@]34CCCN3C[C@H](F)C4)nc3c(Cl)c(-c4ccc(F)c5sc(N)c(C#N)c45)ncc23)[C@H]1COC` (mixture of isomers) [Compound 29, 4-(4-((rac-(2S,3R)-1-acryloyl-2-(methoxymethyl)pyrrolidin-3-yl)(methyl)amino)-8-chloro-2-(((2R,7aS)-2-fluorotetrahydro-1H-pyrrolizin-7a(5H)-yl)methoxy)pyrido[4,3-d]pyrimidin-7-yl)-2-amino-7-fluorobenzo[b]thiophene-3-carbonitrile], the “GppNHp-KRAS G12C percent of modification” value in experiment [1] is given as “A (percent of modification ≥70%)”. For the same molecule, the “GTP-KRAS G12C percent of modification” value in experiment [2] is on record as “A (percent of modification ≥70%)”. Further, the “GDP-KRAS G12C percent of modification” value in experiment [3] was “A (percent of modification ≥70%)”. Moreover, the figures for the IC50 (in experiment [4]; with pERK in NCI-H358 cells) were at most 500 nM and at most 100 nM, respectively.
Consider `C=CC(=O)N1CC[C@@H](N(C)c2nc(OC[C@@]34CCCN3C[C@H](F)C4)nc3c(F)c(-c4c(F)cc(F)c5sc(N)nc45)ncc23)C1` [Compound 5], for which the “GppNHp-KRAS G12C percent of modification” value in experiment [1] is “A (percent of modification ≥70%)”. The “GTP-KRAS G12C percent of modification” value in experiment [2] is “A (percent of modification ≥70%)”. The “GDP-KRAS G12C percent of modification” value in experiment [3] was “A (percent of modification ≥70%)”. Besides, the results for the half-maximal inhibitory concentration (IC50) (in experiment [4]; in the experiment with pERK in NCI-H358 cells) were at most 500 nM and at most 100 nM, respectively.
Take `C=CC(=O)N1CC[C@@H](N(C)c2nc(OC[C@@]34CCCN3C[C@H](F)C4)nc3c(F)c(-c4ccc(F)c5sc(N)c(C#N)c45)ncc23)C1` [Compound 6, 2-amino-7-fluoro-4-[8-fluoro-2-[[(2R,8S)-2-fluoro-1,2,3,5,6,7-hexahydropyrrolizin-8-yl]methoxy]-4-[methyl-[(3R)-1-prop-2-enoylpyrrolidin-3-yl]amino]pyrido[4,3-d]pyrimidin-7-yl]benzothiophene-3-carbonitrile]: the “GppNHp-KRAS G12C percent of modification” value in experiment [1] was “A (percent of modification ≥70%)”. Also, the “GTP-KRAS G12C percent of modification” value in experiment [2] is on record as “A (percent of modification ≥70%)”. In addition, the “GDP-KRAS G12C percent of modification” value in experiment [3] was “A (percent of modification ≥70%)”. Moreover, the concentration for half-maximal inhibition (IC50) in experiment [4] is at most 500 nM; in the experiment on pERK in NCI-H358 cells, at most 100 nM.
Turning to `C=CC(=O)N1C[C@H](C)N(c2nc(OC[C@@]34CCCN3C[C@H](F)C4)nc3c(F)c(-c4ccc(F)c5sc(N)c(C#N)c45)ncc23)C[C@H]1C` [Compound 7, 2-amino-4-[4-[(2S,5R)-2,5-dimethyl-4-prop-2-enoyl-piperazin-1-yl]-8-fluoro-2-[[(2R,8S)-2-fluoro-1,2,3,5,6,7-hexahydropyrrolizin-8-yl]methoxy]pyrido[4,3-d]pyrimidin-7-yl]-7-fluoro-benzothiophene-3-carbonitrile], the “GppNHp-KRAS G12C percent of modification” value in experiment [1] is given as “B (50% percent of modification <70%)”. The “GTP-KRAS G12C percent of modification” value in experiment [2] was “D (percent of modification <10%)”. Moreover, the “GDP-KRAS G12C percent of modification” value in experiment [3] was “A (percent of modification ≥70%)”. Moreover, the results for the IC50 (in experiment [4]; in the experiment with pERK in NCI-H358 cells) were at most 500 nM and at most 100 nM, respectively.
As to `C=CC(=O)N1CCC(N(C)c2nc(OCCO)nc3c(F)c(-c4ccc(F)c5sc(N)c(C#N)c45)ncc23)[C@H]1C` (stereo partly shown) [Compound 35], the “GppNHp-KRAS G12C percent of modification” value in experiment [1] is on record as “D (percent of modification <10%)”. Also, the “GTP-KRAS G12C percent of modification” value in experiment [2] was “D (percent of modification <10%)”. For the same molecule, in experiment [3], the “GDP-KRAS G12C percent of modification” value is listed as “C (10%≤percent of modification <50%)”. In the experiment on pERK in NCI-H358 cells, this molecule returned a half-maximal inhibitory concentration (IC50) of over 1000 nM.
For the molecule `C=CC(=O)N1CCC(N(C)c2ncnc3c(F)c(-c4ccc(F)c5sc(N)c(C#N)c45)ncc23)[C@H]1C` (stereo partly shown) [Compound 36], the “GppNHp-KRAS G12C percent of modification” value in experiment [1] is “D (percent of modification <10%)”. Also, the “GTP-KRAS G12C percent of modification” value in experiment [2] was “D (percent of modification <10%)”. Further, the “GDP-KRAS G12C percent of modification” value in experiment [3] is listed as “C (10%≤percent of modification <50%)”. In addition, in the experiment with pERK in NCI-H358 cells, the IC50 is over 1000 nM.
